The assay relates to HCT116 colorectal cancer cells. The assay is described as follows: Cisplatin sensitization assay (96 h MTS cell viability).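 Also: compound concentration needed to lower the IC50 of Cisplatin alone by a set fold.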 The format is cell-based. The following applies: Cisplatin sensitization value. The method, then: Compounds can be screened for their ability to sensitize HCT116 colorectal cancer cells to Cisplatin using a 96 h cell viability (MTS) assay. […] Compounds and Cisplatin are then both added simultaneously to the cell media in 2-fold serial dilutions from a top final concentration of 10 μM as a full matrix of concentrations in a final cell volume of 200 μl, and the cells are then incubated at 37° C. in 5% CO2. After 96 h, 40 μl of MTS reagent (Promega G358a) is added to each well and the cells are incubated for 1 h at 37° C. in 5% CO2.
Compounds with a Cisplatin sensitization value of <0.02 μM are marked with “+++.” Compounds with a Cisplatin sensitization value >0.02 μM but <0.2 μM are marked with “++.” Compounds with a Cisplatin sensitization value >0.2 μM but <5 μM are marked with “+.”

Take `Cc1cnccc1-c1ccncc1NC(=O)c1c(N)nn2cc(F)cnc12` [I-C-29, 2-amino-6-fluoro-N-(3′-methyl-[4,4′-bipyridin]-3-yl)pyrazolo[1,5-a]pyrimidine-3-carboxamide]: the “Cisplatin Sensitization Assay” value was “+++ (Compounds with a Cisplatin sensitization value of <0.02 μM are marked with “+++.”)”. As for `CC1(S(C)(=O)=O)CCN(c2ccncc2NC(=O)c2c(N)nn3cc(F)cnc23)CC1` [I-N-243, 2-amino-6-fluoro-N-(4-(4-methyl-4-(methylsulfonyl)piperidin-1-yl)pyridin-3-yl)pyrazolo[1,5-a]pyrimidine-3-carboxamide], the “Cisplatin Sensitization Assay” value is “+++ (Compounds with a Cisplatin sensitization value of <0.02 μM are marked with “+++.”)”.

Take `CC1(C)CN(C(=O)C2CCN(c3c(F)cncc3NC(=O)c3c(N)nn4cc(F)cnc34)CC2)CCN1` [I-G-27, 2-amino-N-(4-(4-(3,3-dimethylpiperazine-1-carbonyl)piperidin-1-yl)-5-fluoropyridin-3-yl)-6-fluoropyrazolo[1,5-a]pyrimidine-3-carboxamide]: the “Cisplatin Sensitization Assay” value is given as “++ (Compounds with a Cisplatin sensitization value >0.02 μM but <0.2 μM are marked with “++.”)”.

Take `CN(C)C(=O)C1CCN(c2ccncc2NC(=O)c2c(N)nn3cc(F)cnc23)CC1` [I-G-2, 2-amino-N-(4-(4-(dimethylcarbamoyl)piperidin-1-yl)pyridin-3-yl)-6-fluoropyrazolo[1,5-a]pyrimidine-3-carboxamide]: the “Cisplatin Sensitization Assay” value is given as “+++ (Compounds with a Cisplatin sensitization value of <0.02 μM are marked with “+++.”)”. The entry for `Nc1nn2cc(F)cnc2c1C(=O)Nc1cncc(F)c1N1CCN(S(=O)(=O)C2CC2)CC1` [I-N-159, 2-amino-N-(4-(4-(cyclopropylsulfonyl)piperazin-1-yl)-5-fluoropyridin-3-yl)-6-fluoropyrazolo[1,5-a]pyrimidine-3-carboxamide] is “+++ (Compounds with a Cisplatin sensitization value of <0.02 μM are marked with “+++.”)”.

Regarding `CCC(C#N)c1cnc2c(C(=O)Nc3cnccc3OC)c(N)nn2c1` (stereo not shown) [I-O-20, 2-amino-6-(1-cyanopropyl)-N-(4-methoxypyridin-3-yl)pyrazolo[1,5-a]pyrimidine-3-carboxamide], the “Cisplatin Sensitization Assay” value is “++ (Compounds with a Cisplatin sensitization value >0.02 μM but <0.2 μM are marked with “++.”)”. As to `Nc1nn2cc(F)cnc2c1C(=O)Nc1cncc(F)c1N1CCC(C(=O)N2CCC(N3CCCCC3)CC2)CC1` [I-G-60, N-(4-(4-([1,4′-bipiperidine]-1′-carbonyl)piperidin-1-yl)-5-fluoropyridin-3-yl)-2-amino-6-fluoropyrazolo[1,5-a]pyrimidine-3-carboxamide], the “Cisplatin Sensitization Assay” value was “+++ (Compounds with a Cisplatin sensitization value of <0.02 μM are marked with “+++.”)”.

On to `Nc1nn2cc(F)cnc2c1C(=O)Nc1cncc(Cl)c1N1CCN2CCN(C3COC3)CC2C1` (stereo not shown) [I-N-38, 2-amino-N-(5-chloro-4-(8-(oxetan-3-yl)hexahydro-1H-pyrazino[1,2-a]pyrazin-2(6H)-yl)pyridin-3-yl)-6-fluoropyrazolo[1,5-a]pyrimidine-3-carboxamide], for which the “Cisplatin Sensitization Assay” value is listed as “++ (Compounds with a Cisplatin sensitization value >0.02 μM but <0.2 μM are marked with “++.”)”.

Turning to `Nc1nn2cc(F)cnc2c1C(=O)Nc1cnccc1N1CCCC2(COC2)C1` [I-N-253, N-(4-(2-oxa-6-azaspiro[3.5]nonan-6-yl)pyridin-3-yl)-2-amino-6-fluoropyrazolo[1,5-a]pyrimidine-3-carboxamide], the “Cisplatin Sensitization Assay” value is reported as “+++ (Compounds with a Cisplatin sensitization value of <0.02 μM are marked with “+++.”)”. The entry for `CN1CCN(S(=O)(=O)C2CCN(c3c(F)cncc3NC(=O)c3c(N)nn4cc(F)cnc34)CC2)CC1` [I-N-166, 2-amino-6-fluoro-N-(5-fluoro-4-(4-((4-methylpiperazin-1-yl)sulfonyl)piperidin-1-yl)pyridin-3-yl)pyrazolo[1,5-a]pyrimidine-3-carboxamide] is “+++ (Compounds with a Cisplatin sensitization value of <0.02 μM are marked with “+++.”)”. As to `N#CCc1cnc2c(C(=O)Nc3cnccc3-c3ccccc3)c(N)nn2c1` [I-C-6, 2-amino-6-(cyanomethyl)-N-(4-phenylpyridin-3-yl)pyrazolo[1,5-a]pyrimidine-3-carboxamide], the “Cisplatin Sensitization Assay” value was “+++ (Compounds with a Cisplatin sensitization value of <0.02 μM are marked with “+++.”)”.

On to `Cc1cncn1-c1ccncc1NC(=O)c1c(N)nn2cc(F)cnc12` [I-N-283, 2-amino-6-fluoro-N-(4-(5-methyl-1H-imidazol-1-yl)pyridin-3-yl)pyrazolo[1,5-a]pyrimidine-3-carboxamide], for which the “Cisplatin Sensitization Assay” value is reported as “++ (Compounds with a Cisplatin sensitization value >0.02 μM but <0.2 μM are marked with “++.”)”. To `Nc1nn2cc(F)cnc2c1C(=O)Nc1cnccc1-n1cnc(C(F)(F)F)c1` [I-N-27, 2-amino-6-fluoro-N-(4-(4-(trifluoromethyl)-1H-imidazol-1-yl)pyridin-3-yl)pyrazolo[1,5-a]pyrimidine-3-carboxamide] belongs “++ (Compounds with a Cisplatin sensitization value >0.02 μM but <0.2 μM are marked with “++.”)”; to `COc1ccncc1NC(=O)c1c(N)nn2cc(F)cnc12` [I-O-4, 2-amino-6-fluoro-N-(4-methoxypyridin-3-yl)pyrazolo[1,5-a]pyrimidine-3-carboxamide], “++ (Compounds with a Cisplatin sensitization value >0.02 μM but <0.2 μM are marked with “++.”)”; to `CN1CCN(c2ccc(-c3ccncc3NC(=O)c3c(N)nn4cc(F)cnc34)cn2)CC1` [I-C-21, 2-amino-6-fluoro-N-(6-(4-methylpiperazin-1-yl)-[3,4′-bipyridin]-3′-yl)pyrazolo[1,5-a]pyrimidine-3-carboxamide], “+++ (Compounds with a Cisplatin sensitization value of <0.02 μM are marked with “+++.”)”.

For `N#CCc1cnc2c(C(=O)Nc3cnccc3OCC3CC3)c(N)nn2c1` [I-O-32, 2-amino-6-(cyanomethyl)-N-(4-(cyclopropylmethoxy)pyridin-3-yl)pyrazolo[1,5-a]pyrimidine-3-carboxamide], the “Cisplatin Sensitization Assay” value is “+++ (Compounds with a Cisplatin sensitization value of <0.02 μM are marked with “+++.”)”.

As to `COc1cncc(NC(=O)c2c(N)nn3cc(F)cnc23)c1C1CC1` [I-C-84, 2-amino-N-(4-cyclopropyl-5-methoxypyridin-3-yl)-6-fluoropyrazolo[1,5-a]pyrimidine-3-carboxamide], the “Cisplatin Sensitization Assay” value was “++ (Compounds with a Cisplatin sensitization value >0.02 μM but <0.2 μM are marked with “++.”)”. Consider `CN1CCN(C(=O)C2(C)CCN(c3c(F)cncc3NC(=O)c3c(N)nn4cc(F)cnc34)CC2)CC1` [I-G-54, 2-amino-6-fluoro-N-(5-fluoro-4-(4-methyl-4-(4-methylpiperazine-1-carbonyl)piperidin-1-yl)pyridin-3-yl)pyrazolo[1,5-a]pyrimidine-3-carboxamide], for which the “Cisplatin Sensitization Assay” value is “+++ (Compounds with a Cisplatin sensitization value of <0.02 μM are marked with “+++.”)”. As to `Nc1nn2cc(F)cnc2c1C(=O)Nc1cnccc1N1CCN(S(=O)(=O)C2CC2)CC1` [I-N-176, 2-amino-N-(4-(4-(cyclopropylsulfonyl)piperazin-1-yl)pyridin-3-yl)-6-fluoropyrazolo[1,5-a]pyrimidine-3-carboxamide], the “Cisplatin Sensitization Assay” value is given as “+++ (Compounds with a Cisplatin sensitization value of <0.02 μM are marked with “+++.”)”. The entry for `CN(C)CCCN(C)C(=O)C1CCN(c2c(F)cncc2NC(=O)c2c(N)nn3cc(F)cnc23)CC1` [I-G-16, 2-amino-N-(4-(4-((3-(dimethylamino)propyl)(methyl)carbamoyl)piperidin-1-yl)-5-fluoropyridin-3-yl)-6-fluoropyrazolo[1,5-a]pyrimidine-3-carboxamide] is “+++ (Compounds with a Cisplatin sensitization value of <0.02 μM are marked with “+++.”)”; for `Nc1nn2cc(Cl)cnc2c1C(=O)Nc1cnccc1N1CCC(N2CCCC2)CC1` [I-N-105, 2-amino-6-chloro-N-(4-(4-(pyrrolidin-1-yl)piperidin-1-yl)pyridin-3-yl)pyrazolo[1,5-a]pyrimidine-3-carboxamide] it is “+++ (Compounds with a Cisplatin sensitization value of <0.02 μM are marked with “+++.”)”. The entry for `Nc1nn2cc(F)cnc2c1C(=O)Nc1cnccc1N1CCC(c2ncon2)CC1` [I-N-241, N-(4-(4-(1,2,4-oxadiazol-3-yl)piperidin-1-yl)pyridin-3-yl)-2-amino-6-fluoropyrazolo[1,5-a]pyrimidine-3-carboxamide] is “+++ (Compounds with a Cisplatin sensitization value of <0.02 μM are marked with “+++.”)”; for `Nc1nn2cc(F)cnc2c1C(=O)Nc1cnccc1N1CCN([C@@H]2CCOC2)CC1` [I-N-10, (R)-2-amino-6-fluoro-N-(4-(4-(tetrahydrofuran-3-yl)piperazin-1-yl)pyridin-3-yl)pyrazolo[1,5-a]pyrimidine-3-carboxamide] it is “++ (Compounds with a Cisplatin sensitization value >0.02 μM but <0.2 μM are marked with “++.”)”; for `CN(C)C(=O)C1CCN(c2c(F)cncc2NC(=O)c2c(N)nn3cc(F)cnc23)CC1` [I-G-29, 2-amino-N-(4-(4-(dimethylcarbamoyl)piperidin-1-yl)-5-fluoropyridin-3-yl)-6-fluoropyrazolo[1,5-a]pyrimidine-3-carboxamide] it is “+++ (Compounds with a Cisplatin sensitization value of <0.02 μM are marked with “+++.”)”. For `COC1CN(C(=O)C2CCN(c3c(F)cncc3NC(=O)c3c(N)nn4cc(F)cnc34)CC2)C1` [I-G-21, 2-amino-6-fluoro-N-(5-fluoro-4-(4-(3-methoxyazetidine-1-carbonyl)piperidin-1-yl)pyridin-3-yl)pyrazolo[1,5-a]pyrimidine-3-carboxamide], the “Cisplatin Sensitization Assay” value is “+++ (Compounds with a Cisplatin sensitization value of <0.02 μM are marked with “+++.”)”.

Source of the values: patent publication US11117900B2 (Vertex Pharmaceuticals Incorporated, priority 2012, dated 2021).
